We go through two molecules from patent publication US8445476B2, “Carbacephem β-lactam antibiotics” (Achaogen, Inc., priority 2007, dated 2013).

Series [1] relates to S. aureus ASAU1029 (CA-MRSA, USA300). Nature of the series: MIC assay, S. aureus ASAU1029. The format is cell-based. The conditions noted are these: Staphylococcus aureus, read-out: MIC ASAU 1029. On the procedure: (§1) The in vitro MIC for bacterial isolates may be obtained in the following manner: a test compound is incorporated into a series of two-fold dilutions in cation adjusted Mueller-Hinton broth (CAMHB). Different bacterial strains diluted to provide a uniform inoculum are added to the CAMHB containing test compounds. A well without test compound is included for each strain as a growth control. […] The procedures used in these experiments are generally those standardized by the Clinical and Laboratory Standards Institute (CLSI), as set forth in the CLSI publication entitled “M7-A7. Methods for dilution antimicrobial susceptibility tests for bacteria that grow aerobically; approved standard-seventh edition.” (2006), which is incorporated by reference as if fully set forth herein. The following exemplifies such a procedure although it is to be understood that modifications of the procedure may be implemented as required.
(§2) Two-fold dilutions of the test compounds are prepared in CAMHB at 2× the concentration range to be tested if the compounds are soluble in aqueous solution. Alternately, dimethylsulfoxide (DMSO) is used to prepare two-fold dilutions at 10× the concentration range to be tested. Reference drugs such as cefotaxime, vancomycin or imipenem are used as positive controls. A few isolated colonies are retrieved from a pure culture prepared on an agar plate and suspended in PBS until the turbidity of the suspension matches a 0.5 McFarland standard which is equal to approximately 10^8 sCFU/mL. This solution is further diluted in CAMHB to 10^6CFU/mL if compounds are diluted in CAMHB and 5×10^5 CFU/mL if compounds are diluted in DMSO. The CAMHB plates containing the compound dilutions are combined in equal volumes with the higher density inoculum, or 10 μL of the DMSO dilutions are added to the lower density inoculum. When S. aureus is the organism being tested and the compound is oxacillin, a beta-lactam or a carbacephem compound of the present invention, 2% NaCl is added to the growth media. The plates are then incubated for 16-20 hours at 35° C. The plates are then observed to determine which concentration of the test compound is the MIC.

The test system of series [2] is S. aureus ASAU1033 (MRSA, CIP, ERY, CLIN, TET, GEN resistant). Nature of the series: MIC assay, S. aureus ASAU1033. The format is cell-based. The conditions noted are these: Staphylococcus aureus, read-out: MIC ASAU 1033. On the procedure:
as §1, §2

The test system of series [3] is S. aureus ASAU1028 (CA-MRSA, USA400). Nature of the series: MIC assay, S. aureus ASAU1028. The format is cell-based. The conditions noted are these: Staphylococcus aureus, read-out: MIC ASAU 1028. On the procedure:
as §1, §2

The nature of series [4]: Pharmacokinetic study in rats. The class given is in vivo. The conditions noted are these: male, Sprague-Dawley, rat. On the procedure: Male cannulated Sprague-Dawley rats (˜250 g) are administered test compounds by IV, PO, or SC routes. All animals are weighed prior to dose administration. Blood (˜0.25 mL) is collected by cannula transferred into microtainer tubes containing EDTA at time points 2 (I.V. animals only), 5, 15, 30, 60, 120, 240, 360, 480, 1440 minutes. After collection, the blood samples are centrifuged at approximately 1000×g at 2-8° C. for approximately 10 minutes. Each plasma specimen is collected, aliquoted into cluster tubes, and stored at ˜−20° C. until analysis.

Series [5] concerns S. aureus ASAU002 (MRSA ATCC 33591). Nature of the series: MIC assay, S. aureus ASAU002. The conditions noted are these: Staphylococcus aureus. The class given is cell-based. On the procedure:
as §1, §2

Series [6] relates to Staphylococcus aureus Methicillin Resistance (MRSA) (ATCC 33591). Nature of the series: Neutropenic mouse infected thigh model. The format is in vivo, mice. On the procedure: Groups of 6 male specific-pathogen-free CD-1 mice weighing 22±2 g are used. Animals are rendered immunosuppressedion by two intraperitoneal injections of cyclophosphamide, the first at 150 mg/kg 4 days before infection (day −4) and the second at 100 mg/kg 1 day before infection (day −1). On day 0, animals are inoculated intramuscularly (0.1 ml/thigh) with 1×10^5 CFU/mouse of Staphylococcus aureus Methicillin Resistance (MRSA) (ATCC 33591) into right thigh. Vehicle and/or test substances are then administered (IV, SC, or PO) 2 hours later. At 26 hours after inoculation, muscle of the right thigh is harvested from each of the survival test animals. The removed muscle tissues are then homogenized in 3 to 4 ml of PBS, pH 7.4 with a ceramic mortar. Homogenates of 0.1 ml are used for serial 10-fold dilutions and plated on Muller Hinton Broth in 1.5% Bacto® Agar for CFU determination. Decrease of the CFU/g muscle of right thigh in 99 percent or more (≧99) of the animals indicates significant activity. See, e.g., Andes, D. et al., Antimicrobial Agents and Chemotherapy, 46: 1665-1670 (2002); and Griffith, D. C., et al., Antimicrobial Agents and Chemotherapy, 50: 1628-1632 (2006).
Test compounds were dosed s.c. at 60, 120 or 240 mg/kg/day, except vancomycin at a single dose level of 220 mg/kg/day.

Series [7] has as its system S. aureus ASAU1043 (MRSA, CIP, ERY, CLI, GEN resistant). The series can be described thus: MIC assay, S. aureus ASAU1043. The class given is cell-based. The conditions noted are these: Staphylococcus aureus, read-out: MIC ASAU 1043. On the procedure: as §1, §2
Series [8] relates to S. aureus ASAU001 (Susceptible Organism ATCC 29213). The series can be described thus: MIC assay, S. aureus ASAU001. The format is cell-based. The conditions noted are these: Staphylococcus aureus, ATCC29213, read-out: MIC ASAU 001. On the procedure: as §1, §2
For series [9] the following is noted: previously reported (Griffith et al.); cited from earlier work.
For series [10], the system named is Staphylococcus aureus Methicillin Resistance (MRSA) (ATCC 33591). The conditions noted are these: 160 mg/kg/day, dosed 4 times per day, previously reported (Craig et al.); cited from earlier work.
Series [11] has as its system S. aureus ASAU002 (MRSA ATCC 33591). The conditions noted are these: previously reported (Craig et al.); cited from earlier work.
The mark [12] stands for this setting: S. aureus ASAU002, MRSA ATCC 33591, read-out: MIC ASAU 002.

Structures are written as SMILES. ≈ marks a conversion by molar mass, not a printed value. Where two headings read alike, the source gives them in different places.

In general, MIC refers to the lowest concentration found to suppress growth. In general, half-life refers to the time in which the quantity being followed falls by half. Read a high half-life as slow loss. Consider `NCCSCc1cnccc1SC1=C(C(=O)O)N2C(=O)[C@@H](NC(=O)/C(=N\O)c3nsc(N)n3)[C@H]2CC1` [48/1, (6R,7S,Z)-7-(2-(5-amino-1,2,4-thiadiazol-3-yl)-2-(hydroxyimino)acetamido)-3-(3-((2-aminoethylthio)methyl)pyridin-4-ylthio)-8-oxo-1-aza-bicyclo[4.2.0]oct-2-ene-2-carboxylic Acid], for which the MIC is at most 1 µg/mL in series [1]; 1 to 8 µg/mL (≈ 1.82 to 14.5 µM) in series [2]; at most 1 µg/mL in series [3]; at most 1 µg/mL in series [5] (setting [12]); 1 µg/mL (≈ 1.82 µM) in series [5] (strain used in the infected thigh model (ATCC 33591), read-out: MIC); 1 to 8 µg/mL (≈ 1.82 to 14.5 µM) in series [7]. Besides, the MIC in series [8] was at most 1 µg/mL. The “time uncorrected plasma concentrations are above the MIC” value in [4] (in vivo, 10 mg/kg) is on record as 2 h. For the same molecule, the half-life in series [4] (plasma, rats, 10 mg/kg IV) is 1.8 h. In addition, the Vd in series [4] (plasma, rats, 10 mg/kg IV, read-out: volume of distribution Vss) came to 1.08 L/kg. Moreover, in [6] (s.c., lowest dose of 60 mg/kg/day (TID 20 mg/kg/8 h)), the “log kill (CFU) in thigh” value was 1 log kill. Moreover, the “efficacy compared with vancomycin” value in series [6] (vancomycin 220 mg/kg/day (BID 110 mg/kg/12 h)) is on record as “more effective than vancomycin”.

A word on the Vss: it is the apparent volume that relates the amount in the body to the concentration in plasma or blood. With `Nc1nnc(SC2=C(C(=O)O)N3C(=O)[C@@H](NC(=O)/C(=N\O)c4nc(N)sc4Cl)[C@H]3CC2)s1` [Comparative Compound 2], the T1/2 in [9] is 1.47 h. For the same molecule, in series [9], the distribution volume (Vss) is recorded as 0.91 L/kg. In addition, in [10], the “log kill in CFU count” value is recorded as 3 log kill. Also, the minimal inhibitory concentration (MIC) in series [11] was 1 µg/mL (≈ 1.93 µM); in series [5] (setting [12]) it was at most 1 µg/mL; in [8], at most 1 µg/mL.
